# Laboratory results as given in patent US4935435A, “Use of tetrazole derivatives” (May & Baker Limited, priority 1988, dated 1990).
# Assays:
# [1] = system: collagen-induced arthritis in rats; assay: collagen-induced arthritis in rats (joint size by electronic calipers, erosion and inflammation); format: in vivo, rat
# Description: Joint sizes were measured periodically, for 70 days, by means of electronic calipers placed across the tibio-tarsal junction.
# [2] = system: collagen-induced arthritis in rats; assay: X-radiography of hind paws on day 71, collagen-induced arthritis in rats; format: in vivo; settings: rat hind paws; 71st day; oral 30 mg/kg per day; versus control
# Description: On the 71st day the hind paws were examined by X-radiography. Joint damage was assessed according to five parameters and scored on an arbitrary scale of 0 to 5.
smiles,measurement,setting,value
"CC(=O)c1cc(F)cc(NC(=O)c2nnn[nH]2)c1O [compound A, 3'-Acetyl-5'-fluoro-2'-hydroxytetrazole-5-carboxanilide]",mean joint diameter (tibio-tarsal junction) over the 70 days,"[1]; oral 30 mg/kg per day, 70 days, control animals increased from 7.6 mm to 8.1 mm",7.7 mm
same,erosion and inflammation caused by collagen-induced arthritis,"[1]; oral, 30 mg/kg body weight per day, compared with control animals",inhibited erosion and inflammation
same,"joint damage by X-radiography, five parameters scored on an arbitrary scale of 0 to 5",[2],For each of the five parameters the joints of the control animals were more severely damaged than those of the treated animals
